The results in this text go back to ChEMBL document CHEMBL1201862, “PubChem BioAssay data set” (2004).

Common to all, as to assay: NCI tumour cell line growth inhibition, 48 h
For assay [1], the system named is OVCAR-8.
Assay [2] concerns M14.
In assay [3] the test system is NCI-H23.
Assay [4] deals with 786-0.
The test system of assay [5] is MDA-MB-231.
Assay [6] relates to MOLT-4.
Assay [7] deals with RPMI-8226.
For assay [8], the system named is SF-539.
In assay [9] the test system is HT-29.
Assay [10] has as its system KM12.
For assay [11], the system named is IGROV-1.
For assay [12], the system named is SK-OV-3.
In assay [13] the test system is SN12C.
Assay [14] relates to OVCAR-4.
Assay [15] has as its system SF-295.
Assay [16] deals with SF-268.
In assay [17] the test system is PC-3.
The subject of assay [18] is HOP-62.
Assay [19] relates to BT-549.
Assay [20] relates to SNB-75.

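Protocol summary: plate cells (96-well), add compound at 5 concentrations, incubate 48 h, interpolate endpoints linearly. GI50: concentration for 50% inhibition of growth.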 Active and inactive are the calls of the source. Cut-off read from the data, not from the text of the source: active = GI50 up to about 1.1 µM and inactive = higher.

`CCCC/C=C1\CCC(CN2CCOCC2)C1=O` (stereo not given): the GI50 in [1] is 10 µM (inactive); in assay [2], 3.32 µM (inactive); in assay [3], 5.7 µM (inactive); in [4] it was 1.8 µM (inactive); in [5] it was 3.78 µM (inactive); in assay [6], 2.02 µM (inactive). The GI50 was 0.15 µM (active) in assay [7]; 7.73 µM (inactive) in [8]; 3.48 µM (inactive) in assay [9]; 1.8 µM (inactive) in [10]; 14.3 µM (inactive) in [11]; 17.1 µM (inactive) in [12]. Further, the GI50 in assay [13] was 4.57 µM (inactive); in assay [14] it was 11.7 µM (inactive); in [15], 16.3 µM (inactive); in assay [16], 11.5 µM (inactive); in [17], 13.2 µM (inactive); in [18] it was 15.7 µM (inactive). For the same compound, the figures for the GI50 in assay [19] and in assay [20] were 3.56 µM (inactive) and 2.27 µM (inactive), respectively.
Regarding `CC1(c2cccc(Cl)c2)CC(c2cccc(Cl)c2)=C(C#N)C(=C(C#N)C#N)N1` (stereo not given), the GI50 was 17.9 µM (inactive) in assay [1]; 17.1 µM (inactive) in assay [2]; 17.4 µM (inactive) in [3]; 15.7 µM (inactive) in assay [4]; 22.3 µM (inactive) in assay [5]; 12.5 µM (inactive) in assay [6]. Further, the GI50 was 5.28 µM (inactive) in assay [7]; 19.1 µM (inactive) in [8]; 27.4 µM (inactive) in assay [9]; 18 µM (inactive) in [10]; 16.7 µM (inactive) in assay [11]; 18.7 µM (inactive) in assay [12]. Besides, the GI50 is 19.4 µM (inactive) in [13]; 14.2 µM (inactive) in assay [14]; 16 µM (inactive) in [15]; 4.62 µM (inactive) in assay [16]; 17.6 µM (inactive) in assay [17]; 19.4 µM (inactive) in [18]. Moreover, the GI50 in assay [19] was 22.8 µM (inactive); in assay [20] it was 19.1 µM (inactive).
Consider `COc1cc2c(cc1OCCCCCCCCN1C(=O)c3cccc4cccc(c34)C1=O)N=C[C@@H]1CCCN1C2=O`, for which the GI50 was 14.9 µM (inactive) in [1]; 37.3 µM (inactive) in assay [2]; 15.1 µM (inactive) in assay [3]; 23.6 µM (inactive) in [4]; 8.63 µM (inactive) in assay [5]; 3.48 µM (inactive) in [6]. The GI50 in assay [7] is 2.96 µM (inactive); in assay [8] it was 3.45 µM (inactive); in [9] it was 15.7 µM (inactive); in [10] it was 16.3 µM (inactive); in assay [11], 3.11 µM (inactive); in [12] it was 1.79 µM (inactive). Besides, the GI50 in assay [13] was 22.2 µM (inactive); in assay [14], 0.171 µM (active); in assay [15], 15.6 µM (inactive); in assay [16], 15 µM (inactive); in [17], 7.45 µM (inactive); in assay [18], 42 µM (inactive). In addition, the GI50 was 12.6 µM (inactive) in assay [19] and 1.11 µM (active) in assay [20].
With `O=C(/C=C1\C[C@H]2C=Nc3ccccc3C(=O)N2C1)NCCCCCNC(=O)/C=C1\C[C@H]2C=Nc3ccccc3C(=O)N2C1`, the GI50 in assay [1] was 2.99 µM (inactive); in assay [2] it was 3.49 µM (inactive); in [3] it was 9.91 µM (inactive); in [4], 1.84 µM (inactive); in assay [5], 16.2 µM (inactive); in [6], 1.7 µM (inactive). The GI50 is 4.28 µM (inactive) in assay [7]; 19.1 µM (inactive) in [8]; 11.6 µM (inactive) in assay [9]; 17.7 µM (inactive) in assay [10]; 11 µM (inactive) in assay [11]; 16.2 µM (inactive) in [12]. Moreover, the GI50 in assay [13] was 4.74 µM (inactive); in [14], 7.53 µM (inactive); in assay [15], 18.3 µM (inactive); in assay [16], 6.49 µM (inactive); in assay [17], 13.8 µM (inactive); in [18] it was 14.2 µM (inactive). Besides, the GI50 in [19] was 12.6 µM (inactive); in assay [20], 13.6 µM (inactive).
